# According to patent US20100179172A1, “N-PHENYL-METHANAMINE DERIVATIVE AND PESTICIDE CONTAINING IT” (priority 2007, published 2010):
# System: Larval ticks (Haemaphysalis longicornis)
# Assay: Test on controlling effects against Haemaphysalis longicornis (Petri dish contact, knock down time, Test Example 7)
# Type: in vivo
# Conditions: 1 ml in Petri dish, 25° C.
# Protocol: On an inner surface of a Petri dish having a diameter of 9 cm, 1 ml of a solution of the compound No. 40 in acetone (concentration: 10 μg/ml, 1 μg/ml or 0.1 μg/ml) was dropped by a micro pipette. After the inner surface of the Petri dish was dried, 100 Larval ticks (Haemaphysalis longicornis) were put, and the Petri dish was covered with a polyethylene sheet and sealed by a rubber band. Thereafter, the Petri dish was left to stand still at a constant temperature of 25° C. under a relative humidity of 100% under a constant dark condition except for the time of observation. Observation was carried out every time upon expiration of a certain time (i.e. after 5, 10, 20, 30, 60, 120, 180 and 240 minutes), and the number of ticks knocked down after contact with the compound was counted. As a control group, Larval ticks were put in a Petri dish having 1 ml of acetone dropwise added and observed in the same manner. The above operation was repeated twice.
# From the number of knocked down ticks in each observation, the survival rate was obtained, and a corrected mortality was calculated by the following Abbott correction formula. Then, probit-time linear line was drawn, and the median knock down time (KT50 value) was obtained.
# Corrected mortality (%)=[(Survival rate in control group−Survival rate in treated group)/Survival rate in control group]×100
smiles,measurement,setting,value
Cc1ncccc1CN(Cc1ccccn1)c1cc(C(F)(F)F)c(Br)c(C(F)(F)F)c1 [compound 40],"KT50 value, Average",0.1 μg/ml,38 min
same,"KT50 value, First time",0.1 μg/ml,40 min
same,"KT50 value, Second time",0.1 μg/ml,35 min
same,"KT50 value, Average",1 μg/ml,50 min
same,"KT50 value, First time",1 μg/ml,50 min
same,"KT50 value, Second time",1 μg/ml,50 min
same,"KT50 value, Average",10 μg/ml,40 min
same,"KT50 value, First time",10 μg/ml,40 min
same,"KT50 value, Second time",10 μg/ml,40 min
